Measurements published in ChEMBL document CHEMBL1201862, “PubChem BioAssay data set” (2004).
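Briefly, cells in 96-well plates were exposed to five compound concentrations for 48 h, and endpoints were estimated by linear interpolation. Here, GI50 denotes the concentration required for 50% inhibition of growth.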 Activity calls are given as the source filed them. Rule as the data show it: active = GI50 up to about 1.1 µM and inactive = higher.

Experiments:
Assay in all cases: inhibition of tumour cell growth, NCI panel, 48 h
786-0 = test system: 786-0
A498 = test system: A498
A549 = test system: A549
ACHN = test system: ACHN
BT-549 = test system: BT-549
CAKI-1 = test system: CAKI-1
CCRF-CEM = test system: CCRF-CEM
COLO 205 = test system: COLO 205
DU-145 = test system: DU-145
EKVX = test system: EKVX
HCC 2998 = test system: HCC 2998
HCT-116 = test system: HCT-116
HCT-15 = test system: HCT-15
HL-60 = test system: HL-60
HOP-62 = test system: HOP-62
HOP-92 = test system: HOP-92
HT-29 = test system: HT-29
Hs-578T = test system: Hs-578T
IGROV-1 = test system: IGROV-1
K562 = test system: K562
KM12 = test system: KM12
LOX IMVI = test system: LOX IMVI
M14 = test system: M14
MCF7 = test system: MCF7
MDA-MB-231 = test system: MDA-MB-231
MDA-MB-435 = test system: MDA-MB-435
MDA-N = test system: MDA-N
MOLT-4 = test system: MOLT-4
Malme-3M = test system: Malme-3M
NCI-H23 = test system: NCI-H23
NCI-H460 = test system: NCI-H460
NCI-H522 = test system: NCI-H522
NCI/ADR-RES = test system: NCI/ADR-RES
OVCAR-3 = test system: OVCAR-3
OVCAR-4 = test system: OVCAR-4
OVCAR-5 = test system: OVCAR-5
OVCAR-8 = test system: OVCAR-8
PC-3 = test system: PC-3
RPMI-8226 = test system: RPMI-8226
RXF 393 = test system: RXF 393
SF-268 = test system: SF-268
SF-295 = test system: SF-295
SF-539 = test system: SF-539
SK-MEL-5 = test system: SK-MEL-5
SK-OV-3 = test system: SK-OV-3
SN12C = test system: SN12C
SNB-19 = test system: SNB-19
SW-620 = test system: SW-620
T47D = test system: T47D
TK-10 = test system: TK-10
U-251 = test system: U-251
UACC-257 = test system: UACC-257
UACC-62 = test system: UACC-62
UO-31 = test system: UO-31

SMILES: O=C(O)c1ccccc1NC(=S)c1ccccc1
- GI50 (786-0): 47.4 µM (inactive)
- GI50 (A498): 61.9 µM (inactive)
- GI50 (A549): 51.3 µM (inactive)
- GI50 (ACHN): 24.7 µM (inactive)
- GI50 (BT-549): 33 µM (inactive)
- GI50 (CAKI-1): 43 µM (inactive)
- GI50 (CCRF-CEM): 45.5 µM (inactive)
- GI50 (COLO 205): 39.1 µM (inactive)
- GI50 (DU-145): > 100 µM (inactive)
- GI50 (EKVX): 37.8 µM (inactive)
- GI50 (HCC 2998): < 0.01 µM (active)
- GI50 (HCT-116): 48.3 µM (inactive)
- GI50 (HCT-15): 30.3 µM
- GI50 (HL-60): 34 µM (inactive)
- GI50 (HOP-62): 50.4 µM (inactive)
- GI50 (HOP-92): 11.8 µM (inactive)
- GI50 (HT-29): 37.8 µM (inactive)
- GI50 (Hs-578T): 53.7 µM (inactive)
- GI50 (IGROV-1): 25.1 µM (inactive)
- GI50 (K562): 39.2 µM (inactive)
- GI50 (KM12): 50.2 µM (inactive)
- GI50 (LOX IMVI): 30.5 µM (inactive)
- GI50 (M14): 70.5 µM (inactive)
- GI50 (MCF7): 31.3 µM (inactive)
- GI50 (MDA-MB-231): 60.5 µM (inactive)
- GI50 (MDA-MB-435): 52.8 µM (inactive)
- GI50 (MDA-N): 38.7 µM (inactive)
- GI50 (MOLT-4): 67.5 µM (inactive)
- GI50 (Malme-3M): 19.1 µM (inactive)
- GI50 (NCI-H23): 80.9 µM (inactive)
- GI50 (NCI-H460): 53.2 µM (inactive)
- GI50 (NCI-H522): 13.5 µM (inactive)
- GI50 (NCI/ADR-RES): 51.1 µM (inactive)
- GI50 (OVCAR-3): 34.4 µM (inactive)
- GI50 (OVCAR-4): 0.0592 µM (active)
- GI50 (OVCAR-5): > 100 µM (inactive)
- GI50 (OVCAR-8): 33.9 µM (inactive)
- GI50 (PC-3): 34.5 µM (inactive)
- GI50 (RPMI-8226): 28.2 µM (inactive)
- GI50 (RXF 393): 51.9 µM (inactive)
- GI50 (SF-268): 64 µM (inactive)
- GI50 (SF-295): 35.2 µM (inactive)
- GI50 (SF-539): 44.4 µM (inactive)
- GI50 (SK-MEL-5): 38.5 µM (inactive)
- GI50 (SK-OV-3): 76.4 µM (inactive)
- GI50 (SN12C): 66.4 µM (inactive)
- GI50 (SNB-19): 48.5 µM (inactive)
- GI50 (SW-620): 46.5 µM (inactive)
- GI50 (T47D): 34.2 µM (inactive)
- GI50 (TK-10): 35.8 µM (inactive)
- GI50 (U-251): 47.8 µM (inactive)
- GI50 (UACC-257): 29.7 µM (inactive)
- GI50 (UACC-62): 30.3 µM (inactive)
- GI50 (UO-31): 51.8 µM (inactive)
